Article PMC6277767, “Broad and Region-Specific Impacts of the Synthetic Cannabinoid CP 55,940 in Adolescent and Adult Female Mouse Brains” (Frontiers in Molecular Neuroscience, 2018)

System: CD1 female mouse brain lipidome
Assay: Brain-region lipid levels (HPLC/MS/MS lipidomics) 2 h after single i.p. 3 mg/kg CP 55,940 vs vehicle
Type: in vivo
Details: thalamus
Protocol: The Bloomington Institutional Animal Care and Use Committee of Indiana University reviewed and approved the animal procedures. Female mice from the CD1 strain were utilized to match our study examining THC’s effects on the brain lipidome ([Leishman et al., 2018]). Mice were given a single i.p. injection of either 3 mg/kg CP or 1:1:18 cremophor:ethanol:saline vehicle (please refer to the section “3 mg/kg CP Is Relevant for Synthetic Cannabinoid Abuse and Has Stronger Effects on the Female Mouse Brain Lipidome During Adolescence” for a justification of dose and use of female mice). Three different age groups were given injections: PND 35 and PND 50 adolescents, and adult mice (PND 113). At least eight mice in each age group received CP and at least eight received vehicle. Matching the THC study time course ([Leishman et al., 2018]), mice were sacrificed via rapid decapitation 2 h after injection. Brains were immediately removed and flash-frozen in liquid nitrogen, and then stored at -80°C until dissections were performed. Brains were dissected on an ice-cold dissection plate into the following regions: STR, HIPP, CER, THAL, CTX, HYP, MID, and STEM. These abbreviations for these brain areas will be used exclusively when discussing the results generated by these specific dissections. Each dissected area was immediately placed in liquid nitrogen and then stored at -80°C until used for lipid extraction.
Tissue extracts were performed as previously described ([Bradshaw et al., 2006]; [Stuart et al., 2013]; [Raboune et al., 2014]; [Leishman et al., 2016a],[b], [2017], [2018]). First, samples were shock frozen in liquid nitrogen, weighed, and transferred to a centrifuge tube. The mass of the largest sample was multiplied by 50 to determine how many milliliters of HPLC-grade methanol (Fisher, Fair Lawn, NJ, United States) to add. Then, samples were spiked with 500 pmol deuterium-labeled NAGly (d8NAGly; Cayman Chemical, Ann Arbor, MI, United States). Samples were placed on ice in darkness for 2 h then individually homogenized and centrifuged at 19,000 × g for 20 min at 20°C. Supernatants were diluted with HPLC water (purified in house) to make a solution of 75% water, 25% supernatant. Lipids were partially purified on C18 solid phase extraction columns (Agilent, Palo Alto, CA, United States). A series of four elutions with 1.5 mL of 60%, 75%, 85%, and 100% methanol were collected ([Stuart et al., 2013]; [Leishman et al., 2016a],[b], [2018]).
As previously described ([Bradshaw et al., 2006]; [Tan et al., 2006]; [Smoum et al., 2010]; [Stuart et al., 2013]; [Tortoriello et al., 2013]; [Raboune et al., 2014]; [Leishman et al., 2016a],[b], [2017], [2018]), samples were analyzed using an Applied Biosystems API 3000 triple quadrupole mass spectrometer with electrospray ionization (Foster City, CA, United States). Using an Agilent XDB-C18 reversed phase analytical column and optimized mobile phase gradients, 20 μL from each elution were chromatographed. Two Shimadzu 10ADvp pumps (Columbia, MD, United States) provided the pressure for gradient elution. Mobile phase A: 20% methanol, 80% water (v/v) and 1 mM ammonium acetate (Sigma, St. Louis, MO, United States). Mobile phase B: 100% methanol, 1 mM ammonium acetate. Every method run began with 0% mobile phase B, reached 100% mobile phase B flowing at 0.2 mL/min, and gradually returned to 0% mobile phase B.
This screening library will be referred to as the lipidome when discussing data from this study. HPLC/MS/MS data were analyzed using Analyst software (Applied Biosystems) ([Bradshaw et al., 2006]; [Tan et al., 2006]; [Stuart et al., 2013]; [Tortoriello et al., 2013]; [Raboune et al., 2014]; [Leishman et al., 2016a],[b], [2017], [2018]). Chromatograms (Supplementary Figure 3) were generated by determining the retention time of analytes from the analytical column with a [M-1] or [M+1] parent peak and a fragmentation peak corresponding to the programmed values. […]

[1] = WT adult female mice, 3mg/kg CP 55,940

CCCCCCC(C)(C)c1ccc([C@@H]2C[C@H](O)CC[C@H]2CCCO)c(O)c1 [CP 55,940]
N-docosahexaenoyl ethanolamine level, Mean [1]: 2.99E-11 | N-docosahexaenoyl glycine level, Mean [1]: 1.3E-13 | N-docosahexaenoyl phenylalanine level, Mean [1]: 4.66E-14 | N-linoleoyl GABA level, Mean [1]: 7.91E-12 | N-linoleoyl alanine level, Mean [1]: 5.44E-13 | N-linoleoyl ethanolamine level, Mean [1]: 1.72E-11 | N-linoleoyl glycine level, Mean [1]: 9.08E-14 | N-linoleoyl serine level, Mean [1]: 4.53E-11 | N-oleoyl GABA level, Mean [1]: 1.73E-11 | N-oleoyl alanine level, Mean [1]: 2.34E-12 | N-oleoyl ethanolamine level, Mean [1]: 1.6E-10 | N-oleoyl glycine level, Mean [1]: 4.19E-13 | N-oleoyl leucine level, Mean [1]: 7.81E-13 | N-oleoyl methionine level, Mean [1]: 5.74E-13 | N-oleoyl phenylalanine level, Mean [1]: 4.73E-13 | N-oleoyl serine level, Mean [1]: 2E-10 | N-palmitoyl GABA level, Mean [1]: 2.74E-11 | N-palmitoyl alanine level, Mean [1]: 2.22E-12 | N-palmitoyl ethanolamine level, Mean [1]: 6.49E-11 | N-palmitoyl glycine level, Mean [1]: 2.5E-12 | N-palmitoyl leucine level, Mean [1]: 2.46E-12 | N-palmitoyl methionine level, Mean [1]: 3.82E-12 | N-palmitoyl phenylalanine level, Mean [1]: 4.13E-13 | N-palmitoyl serine level, Mean [1]: 1.13E-11 | N-palmitoyl tyrosine level, Mean [1]: 3.42E-13 | N-palmitoyl valine level, Mean [1]: 1.9E-13 | N-stearoyl GABA level, Mean [1]: 1.7E-11 | N-stearoyl alanine level, Mean [1]: 2.97E-12 | N-stearoyl ethanolamine level, Mean [1]: 1.06E-11 | N-stearoyl glycine level, Mean [1]: 1.83E-12 | N-stearoyl leucine level, Mean [1]: 1.05E-12 | N-stearoyl methionine level, Mean [1]: 4.98E-13 | N-stearoyl phenylalanine level, Mean [1]: 2.37E-13 | N-stearoyl serine level, Mean [1]: 2.33E-11 | N-stearoyl tyrosine level, Mean [1]: 8.82E-14 | Oleic acid level, Mean [1]: 4.55E-10 | PGE2 level, Mean [1]: 1.93E-10 | PhosphoLEA level, Mean [1]: 3.87E-12 | 2-arachidonoyl glycerol: Direction (relative to Veh) (adult, 3 mg/kg CP 55,940): ↓ | 2-arachidonoyl glycerol: Magnitude (x Veh level) (adult, 3 mg/kg CP 55,940): 0.81 x Veh level | 2-linoleoyl glycerol: Direction (relative to Veh) (adult, 3 mg/kg CP 55,940): ↓ | 2-linoleoyl glycerol: Magnitude (x Veh level) (adult, 3 mg/kg CP 55,940): 0.77 x Veh level | 6-ketoPGF1α: Direction (relative to Veh) (adult, 3 mg/kg CP 55,940): ↑ | 6-ketoPGF1α: Magnitude (x Veh level) (adult, 3 mg/kg CP 55,940): 1.23 x Veh level | Arachidonic acid: Direction (relative to Veh) (adult, 3 mg/kg CP 55,940): ↓ | Arachidonic acid: Magnitude (x Veh level) (adult, 3 mg/kg CP 55,940): 0.83 x Veh level | N-arachidonoyl GABA: Direction (relative to Veh) (adult, 3 mg/kg CP 55,940): ↓ | N-arachidonoyl GABA: Magnitude (x Veh level) (adult, 3 mg/kg CP 55,940): 0.80 x Veh level | N-arachidonoyl alanine: Direction (relative to Veh) (adult, 3 mg/kg CP 55,940): ↓ | N-arachidonoyl alanine: Magnitude (x Veh level) (adult, 3 mg/kg CP 55,940): 0.63 x Veh level | N-arachidonoyl ethanolamine: Direction (relative to Veh) (adult, 3 mg/kg CP 55,940): ↓ | N-arachidonoyl ethanolamine: Magnitude (x Veh level) (adult, 3 mg/kg CP 55,940): 0.81 x Veh level | N-arachidonoyl glycine: Direction (relative to Veh) (adult, 3 mg/kg CP 55,940): ↓ | N-arachidonoyl glycine: Magnitude (x Veh level) (adult, 3 mg/kg CP 55,940): 0.63 x Veh level | N-oleoyl ethanolamine: Direction (relative to Veh) (adult, 3 mg/kg CP 55,940): ↓ | N-oleoyl ethanolamine: Magnitude (x Veh level) (adult, 3 mg/kg CP 55,940): 0.79 x Veh level | N-palmitoyl GABA: Direction (relative to Veh) (adult, 3 mg/kg CP 55,940): ↑ | N-palmitoyl GABA: Magnitude (x Veh level) (adult, 3 mg/kg CP 55,940): 1.13 x Veh level | N-palmitoyl ethanolamine: Direction (relative to Veh) (adult, 3 mg/kg CP 55,940): ↓ | N-palmitoyl ethanolamine: Magnitude (x Veh level) (adult, 3 mg/kg CP 55,940): 0.86 x Veh level | N-palmitoyl leucine: Direction (relative to Veh) (adult, 3 mg/kg CP 55,940): ↑ | N-palmitoyl leucine: Magnitude (x Veh level) (adult, 3 mg/kg CP 55,940): 1.36 x Veh level | N-palmitoyl methionine: Direction (relative to Veh) (adult, 3 mg/kg CP 55,940): ↑ | N-palmitoyl methionine: Magnitude (x Veh level) (adult, 3 mg/kg CP 55,940): 1.25 x Veh level | N-palmitoyl valine: Direction (relative to Veh) (adult, 3 mg/kg CP 55,940): ↑ | N-palmitoyl valine: Magnitude (x Veh level) (adult, 3 mg/kg CP 55,940): 1.95 x Veh level | Oleic acid: Direction (relative to Veh) (adult, 3 mg/kg CP 55,940): ↓ | Oleic acid: Magnitude (x Veh level) (adult, 3 mg/kg CP 55,940): 0.78 x Veh level | 2-linoleoyl glycerol Direction (relative to Veh) (PND 35, 3 mg/kg CP 55,940): ↓ | 2-linoleoyl glycerol Magnitude (x Veh level) (PND 35, 3 mg/kg CP 55,940): 0.79 x Veh level | 6-ketoPGF1α Direction (relative to Veh) (PND 35, 3 mg/kg CP 55,940): ↓ | 6-ketoPGF1α Magnitude (x Veh level) (PND 35, 3 mg/kg CP 55,940): 0.77 x Veh level | N-arachidonoyl GABA Direction (relative to Veh) (PND 35, 3 mg/kg CP 55,940): ↓ | N-arachidonoyl GABA Magnitude (x Veh level) (PND 35, 3 mg/kg CP 55,940): 0.72 x Veh level | N-arachidonoyl alanine Magnitude (x Veh level) (PND 35, 3 mg/kg CP 55,940): 0.82 x Veh level | N-arachidonoyl alanine, Direction (relative to Veh) (PND 35, 3 mg/kg CP 55,940): ↓ | N-arachidonoyl ethanolamine, Direction (relative to Veh) (PND 35, 3 mg/kg CP 55,940): ↑ | N-arachidonoyl ethanolamine, Magnitude (x Veh level) (PND 35, 3 mg/kg CP 55,940): 1.21 x Veh level | N-arachidonoyl glycine Direction (relative to Veh) (PND 35, 3 mg/kg CP 55,940): ↓ | N-arachidonoyl glycine Magnitude (x Veh level) (PND 35, 3 mg/kg CP 55,940): 0.86 x Veh level | N-arachidonoyl phenylalanine, Direction (relative to Veh) (PND 35, 3 mg/kg CP 55,940): ↑ | N-arachidonoyl phenylalanine, Magnitude (x Veh level) (PND 35, 3 mg/kg CP 55,940): 1.20 x Veh level | N-arachidonoyl serine Direction (relative to Veh) (PND 35, 3 mg/kg CP 55,940): ↓ | N-arachidonoyl serine Magnitude (x Veh level) (PND 35, 3 mg/kg CP 55,940): 0.81 x Veh level | N-arachidonoyl taurine Direction (relative to Veh) (PND 35, 3 mg/kg CP 55,940): ↓ | N-arachidonoyl taurine Magnitude (x Veh level) (PND 35, 3 mg/kg CP 55,940): 0.87 x Veh level | N-docosahexaenoyl GABA Direction (relative to Veh) (PND 35, 3 mg/kg CP 55,940): ↓ | N-docosahexaenoyl GABA Magnitude (x Veh level) (PND 35, 3 mg/kg CP 55,940): 0.71 x Veh level | N-docosahexaenoyl alanine Direction (relative to Veh) (PND 35, 3 mg/kg CP 55,940): ↓ | N-docosahexaenoyl alanine Magnitude (x Veh level) (PND 35, 3 mg/kg CP 55,940): 0.69 x Veh level | N-docosahexaenoyl glycine Direction (relative to Veh) (PND 35, 3 mg/kg CP 55,940): ↓ | N-docosahexaenoyl glycine Magnitude (x Veh level) (PND 35, 3 mg/kg CP 55,940): 0.85 x Veh level | N-docosahexaenoyl leucine Direction (relative to Veh) (PND 35, 3 mg/kg CP 55,940): ↑ | N-docosahexaenoyl leucine Magnitude (x Veh level) (PND 35, 3 mg/kg CP 55,940): 1.78 x Veh level | N-docosahexaenoyl phenylalanine Direction (relative to Veh) (PND 35, 3 mg/kg CP 55,940): ↑ | N-docosahexaenoyl phenylalanine Magnitude (x Veh level) (PND 35, 3 mg/kg CP 55,940): 1.25 x Veh level | N-linoleoyl ethanolamine, Direction (relative to Veh) (PND 35, 3 mg/kg CP 55,940): ↑ | N-linoleoyl ethanolamine, Magnitude (x Veh level) (PND 35, 3 mg/kg CP 55,940): 1.29 x Veh level | N-oleoyl GABA Magnitude (x Veh level) (PND 35, 3 mg/kg CP 55,940): 0.81 x Veh level | N-oleoyl GABA direction (relative to Veh) (PND 35, 3 mg/kg CP 55,940): ↓ | N-oleoyl alanine Magnitude (x Veh level) (PND 35, 3 mg/kg CP 55,940): 0.84 x Veh level | N-oleoyl alanine direction (relative to Veh) (PND 35, 3 mg/kg CP 55,940): ↓
